Experimental data: patent publication US20230303570A1, “KINASE INHIBITORS AND USES THEREOF” (ABM Therapeutics Corporation, priority 2020, published 2023)

target: HPK1 (MAP4K1) (Homo sapiens, UniProt Q92918); test: HPK1 (MAP4K1) kinase Lantha screen assay; type: biochemical
Method: The effect of the compounds on the activity of HPK1 (MAP4K1) kinase were assessed by Lantha screen assay. • 1. 1×kinase buffer was prepared (50 mM HEPES, pH 7.5, 10 mM MgCl2, 4 mM DT • 2. Compound and assay plates preparation: • 2-1) The compound was diluted to 100× of the final desired highest inhibitor concentration in reaction by 100% DMSO. For example, if a compound was tested at […], then a solution at 500 µM in DMSO was prepared in this step. • 2-2) For each tested compound, the compound was transferred in tubes to one well on a 96-well storage plate and serially diluted by transferring […] of 100% DMSO in the next well and so forth for a total of 6 concentrations. • 2-3) 100 μl of 100% DMSO were added to two empty wells to serve as no compound control and no enzyme control in the same 96-well plate. The resulting plate was labeled as the source plate. • 2-4) 40 μl of compound from source plate were transferred to a new 384-well Echo plate as the intermediate plate. 100 nl of each well from the 384-well Echo plate were transferred to a 384-well assay plate in duplicates. For example, A1 of the 384-well Echo plate was transferred to A1 and A2 of the 384-well plate. A2 of the 384-well Echo plate was transferred to A3 and A4 of the 384-well plate, and so on; • 3. Kinase reaction: a solution of MAP4K1 in 1× kinase buffer at 2-fold the final concentration of each reagent in the assay was prepared. 5 μl of kinase solution was added to each well of the assay plate, except for control wells without enzyme (add 5 μl of 1× kinase buffer instead). The plate was then shaken, then incubated at room temperature for 10 min. A substrate solution of Fluorescein-PKC and ATP in 1× kinase reaction buffer at 2-fold of the final concentration of each reagent desired in the assay was prepared. 5 μl of substrate solution was added to each well of the assay plate to start reaction. The plate was shaken, then covered, and incubated at room temperature for 90 minutes.
Kinase detection: detection solution of 2-fold of final concentration in Antibody Dilution Buffer was prepared. 10 μl of detection solution was added to each well of the assay plate to stop the reaction. The mixtures were mixed briefly with Centrifuge and incubated at room temperature 60 minutes before reading on a plate reader for fluorescence. Data was collected on Envision with excitation at 340 nm and emission at 520 nm and 495 nm.

Sequence of HPK1 (MAP4K1) (Q92918 whole entry, species assumed): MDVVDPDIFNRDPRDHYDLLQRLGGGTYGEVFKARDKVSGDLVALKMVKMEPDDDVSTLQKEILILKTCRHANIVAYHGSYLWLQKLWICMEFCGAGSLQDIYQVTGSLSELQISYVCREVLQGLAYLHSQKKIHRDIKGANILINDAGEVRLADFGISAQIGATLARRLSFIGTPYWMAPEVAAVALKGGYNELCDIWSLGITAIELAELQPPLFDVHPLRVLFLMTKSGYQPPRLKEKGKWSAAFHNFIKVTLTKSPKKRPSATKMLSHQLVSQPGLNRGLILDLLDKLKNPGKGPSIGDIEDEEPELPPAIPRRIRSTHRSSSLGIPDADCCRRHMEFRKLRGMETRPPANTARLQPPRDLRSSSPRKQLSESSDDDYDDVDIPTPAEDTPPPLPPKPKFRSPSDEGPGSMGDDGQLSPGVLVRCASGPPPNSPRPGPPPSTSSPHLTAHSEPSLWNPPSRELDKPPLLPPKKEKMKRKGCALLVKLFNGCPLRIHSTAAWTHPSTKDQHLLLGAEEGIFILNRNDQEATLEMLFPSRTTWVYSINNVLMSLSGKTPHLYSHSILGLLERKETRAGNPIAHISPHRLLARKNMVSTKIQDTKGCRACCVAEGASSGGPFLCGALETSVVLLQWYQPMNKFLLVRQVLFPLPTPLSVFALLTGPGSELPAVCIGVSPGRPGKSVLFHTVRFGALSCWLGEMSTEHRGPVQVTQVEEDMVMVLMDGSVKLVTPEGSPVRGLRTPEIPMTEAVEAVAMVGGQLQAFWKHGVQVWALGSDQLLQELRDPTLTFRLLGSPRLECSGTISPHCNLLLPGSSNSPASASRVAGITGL

Row | Compound | IC50 [nM]
1 | Cc1ccc(NC(=O)c2cc(C(F)(F)F)ccn2)cc1C1=Cc2cnc(Nc3ccncc3)nc2N2CCN=C12 [Compound 214, N-(4-methyl-3-(2-(pyridin-4-ylamino)-8,9-dihydroimidazo[1′,2′:1,6]pyrido[2,3-d]pyrimidin-6-yl)phenyl)-4-(trifluoromethyl)picolinamide] | < 100
2 | Cc1ccc(NC(=O)c2cc(C(F)(F)F)ccn2)cc1C1=Cc2cnc(Nc3cccnc3)nc2N2CCN=C12 [Compound 215, N-(4-methyl-3-(2-(pyridin-3-ylamino)-8,9-dihydroimidazo[1′,2′:1,6]pyrido[2,3-d]pyrimidin-6-yl)phenyl)-4-(trifluoromethyl)picolinamide] | < 100
3 | Cc1ccc(NC(=O)c2cc(C(F)(F)F)ccn2)cc1C1=Cc2cnc(Nc3ccccn3)nc2N2CCN=C12 [Compound 216, N-(4-methyl-3-(2-(pyridin-2-ylamino)-8,9-dihydroimidazo[1′,2′:1,6]pyrido[2,3-d]pyrimidin-6-yl)phenyl)-4-(trifluoromethyl)picolinamide] | 100 to 10000
4 | Cc1ccc(NC(=O)c2cc(C(F)(F)F)ccn2)cc1C1=Cc2cnc(Nc3ccncc3F)nc2N2CCN=C12 [Compound 219, N-(3-(2-((3-fluoropyridin-4-yl)amino)-8,9-dihydroimidazo[1′,2′:1,6]pyrido[2,3-d]pyrimidin-6-yl)-4-methylphenyl)-4-(trifluoromethyl)picolinamide] | 100 to 10000
5 | Cc1ccc(NC(=O)c2cc(C(F)(F)F)ccn2)cc1C1=Cc2cnc(Nc3ncccc3F)nc2N2CCN=C12 [Compound 220, N-(3-(2-((3-fluoropyridin-2-yl)amino)-8,9-dihydroimidazo[1′,2′:1,6]pyrido[2,3-d]pyrimidin-6-yl)-4-methylphenyl)-4-(trifluoromethyl)picolinamide] | 100 to 10000
6 | COc1ccc(Nc2ncc3c(n2)N2CCN=C2C(c2cc(NC(=O)c4cc(C(F)(F)F)ccn4)ccc2C)=C3)cn1 [Compound 221, N-(3-(2-((6-methoxypyridin-3-yl)amino)-8,9-dihydroimidazo[1′,2′:1,6]pyrido[2,3-d]pyrimidin-6-yl)-4-methylphenyl)-4-(trifluoromethyl)picolinamide] | < 100
7 | COc1ncccc1Nc1ncc2c(n1)N1CCN=C1C(c1cc(NC(=O)c3cc(C(F)(F)F)ccn3)ccc1C)=C2 [Compound 222, N-(3-(2-((2-methoxypyridin-3-yl)amino)-8,9-dihydroimidazo[1′,2′:1,6]pyrido[2,3-d]pyrimidin-6-yl)-4-methylphenyl)-4-(trifluoromethyl)picolinamide] | < 100
8 | COc1ccncc1Nc1ncc2c(n1)N1CCN=C1C(c1cc(NC(=O)c3cc(C(F)(F)F)ccn3)ccc1C)=C2 [Compound 223, N-(3-(2-((4-methoxypyridin-3-yl)amino)-8,9-dihydroimidazo[1′,2′:1,6]pyrido[2,3-d]pyrimidin-6-yl)-4-methylphenyl)-4-(trifluoromethyl)picolinamide] | 100 to 10000
9 | Cc1ccc(NC(=O)c2cc(C(F)(F)F)ccn2)cc1C1=Cc2cnc(Nc3cnccc3O)nc2N2CCN=C12 [Compound 224, N-(3-(2-((4-hydroxypyridin-3-yl)amino)-8,9-dihydroimidazo[1′,2′:1,6]pyrido[2,3-d]pyrimidin-6-yl)-4-methylphenyl)-4-(trifluoromethyl)picolinamide] | 100 to 10000
10 | Cc1ccc(NC(=O)c2cc(C(F)(F)F)ccn2)cc1C1=Cc2cnc(Nc3ccccc3F)nc2N2CCN=C12 [Compound 225, N-(3-(2-((2-fluorophenyl)amino)-8,9-dihydroimidazo[1′,2′:1,6]pyrido[2,3-d]pyrimidin-6-yl)-4-methylphenyl)-4-(trifluoromethyl)picolinamide] | < 100
11 | Cc1ccc(NC(=O)c2cc(C(F)(F)F)ccn2)cc1C1=Cc2cnc(Nc3cccc(F)c3)nc2N2CCN=C12 [Compound 226, N-(3-(2-((3-fluorophenyl)amino)-8,9-dihydroimidazo[1′,2′:1,6]pyrido[2,3-d]pyrimidin-6-yl)-4-methylphenyl)-4-(trifluoromethyl)picolinamide] | < 100
